37 molecules from patent US8802664B2 (Bioproject, priority 2010, dated 2014) can be followed below.

SMILES strings stand for the structures. Counter-ions that a name gives are not always drawn. Some results are limits rather than exact numbers.

System in the first data set: not given
Experiment: not given
Turning to `CN1CCC(OC(c2ccc3c(c2)OCCO3)c2nc3ccccc3s2)CC1` (stereo not shown) (as salt: hydrochloride) [Example 10, 2-[(2,3-dihydrobenzo[1,4]dioxin-6-yl)(1-methylpiperidin-4-yloxy)methyl]benzothiazole], the melting point is 71 °C.
`COc1cccc(C(OC2CCN(C)CC2)c2nc3ccccc3s2)c1` (stereo not shown) (as salt: hydrochloride) [Example 11, 2-[(3-methoxyphenyl)(1-methylpiperidin-4-yloxy)methyl]benzothiazole]: the melting point was found to be 182 °C.
`COc1ccc(C(OC2CCN(C)CC2)c2nc3ccccc3s2)cc1` (stereo not shown) (as salt: hydrochloride) [Example 14, 2-[(4-methoxyphenyl)(1-methylpiperidin-4-yloxy)methyl]benzothiazole] yielded a melting point of 72 °C.
In the case of `CN1CCC(OC(c2ccc3ccccc3c2)c2nc3ccccc3s2)CC1` (stereo not shown) (as salt: hydrochloride) [Example 18, 2-[(1-methylpiperidin-4-yloxy)naphthalen-2-ylmethyl]benzothiazole], the melting point worked out at 198 °C.
Molecule `CN1CCC(OC(c2ccc3c(c2)OCO3)c2nc3ccccc3s2)CC1` (stereo not shown) (as salt: hydrochloride) [Example 20, 2-[benzo[1,3]dioxol-5-yl(1-methylpiperidin-4-yloxy)methyl]benzothiazole] had a melting point of 110 °C.
As for `CCCOc1cccc(C(OC2CCN(C)CC2)c2nc3ccccc3s2)c1` (stereo not shown) (as salt: hydrochloride) [Example 26, 2-[(1-methylpiperidin-4-yloxy)(3-propoxy-phenyl)methyl]benzothiazole], the melting point stood at 59 °C.
The same measure, in the same setting: as for `CN1CCC(OC(c2cccc(C(F)(F)F)c2)c2nc3ccccc3s2)CC1` (stereo not shown) (as salt: hydrochloride) [Example 31, 2-[(1-methylpiperidin-4-yloxy)(3-trifluoromethylphenyl)methyl]benzothiazole], the figure is 61 °C; as for `CN1CCC(OC(c2cccc(CCCCCN)c2)c2nc3ccccc3s2)CC1` (stereo not shown) (as salt: hydrochloride) [Example 289, 5-{3-[benzothiazol-2-yl(1-methylpiperidin-4-yloxy)methyl]phenyl}pentylamine], 110 °C; as for `CN1CCC(OC(c2cccc(SCCNC(=N)N)c2)c2nc3ccccc3s2)CC1` (stereo not shown) (as salt: hydrochloride) [Example 302, N-(2-{3-[benzothiazol-2-yl(1-methylpiperidin-4-yloxy)methyl]phenylsulfanyl}ethyl)guanidine], 125 °C.
`CN1CCC(OC(c2cccc(C#CCCCNC(=N)N)c2)c2nc3ccccc3s2)CC1` (stereo not shown) (as salt: hydrochloride) [Example 340, N-(5-{3-[benzothiazol-2-yl(1-methylpiperidin-4-yloxy)methyl]phenyl}pent-4-ynyl)guanidine] returned a melting point of 180 °C.
For `CN1CCC(OC(c2cccc(C#CCCCCNC(=N)N)c2)c2nc3ccccc3s2)CC1` (stereo not shown) (as salt: hydrochloride) [Example 342, N-(6-{3-[benzothiazol-2-yl(1-methylpiperidin-4-yloxy)methyl]phenyl}hex-5-ynyl)guanidine], the melting point came to 185 °C.
With `CN1CCC(OC(c2cccc(CCCCCCNC(=N)N)c2)c2nc3ccccc3s2)CC1` (stereo not shown) (as salt: hydrochloride) [Example 363, N-(6-{3-[benzothiazol-2-yl(1-methylpiperidin-4-yloxy)methyl]phenyl}hexyl)guanidine], the melting point was 90 °C.
Turning to `CN1CCC(OC(c2cccc(CCCCCNC(=N)N)c2)c2nc3ccccc3s2)CC1` (stereo not shown) (as salt: hydrochloride) [Example 365, N-(5-{3-[benzothiazol-2-yl(1-methylpiperidin-4-yloxy)methyl]phenyl}pentyl)guanidine], the melting point stood at 90 °C.
`CN1CCC(OC(c2cccc(C#CCNC(=N)N)c2)c2nc3ccccc3s2)CC1` (stereo not shown) (as salt: hydrochloride) [Example 373, N-(3-{3-[benzothiazol-2-yl(1-methylpiperidin-4-yloxy)methyl]phenyl}prop-2-ynyl)guanidine] registered a melting point of 125 °C.
Regarding `CN1CCC(OC(c2cccc(CCCCNC(=N)N)c2)c2nc3ccccc3s2)CC1` (stereo not shown) (as salt: hydrochloride) [Example 374, N-(4-{3-[benzothiazol-2-yl(1-methylpiperidin-4-yloxy)methyl]phenyl}butyl)guanidine], the melting point was determined as 120 °C.
Still for that read-out and setting: as for `CN1CCC(OC(c2ccc(N)cc2)c2nc3ccccc3[nH]2)CC1` (stereo not shown) (as salt: hydrochloride) [Example 455, 4-[(1H-benzimidazol-2-yl)(1-methylpiperidin-4-yloxy)methyl]aniline], the figure is 185 °C; as for `CN1CCC(OC(c2ccccc2)c2nc3ccccc3s2)C1` (stereo not shown) (as salt: oxalate) [Example 2, 2-[(1-methylpyrrolidin-3-yloxy)phenyl-methyl]benzothiazole], 120 °C.
For `CN1CCC(OC(c2ccc(F)cc2)c2nc3ccccc3s2)CC1` (stereo not shown) (as salt: oxalate) [Example 3, 2-[(4-fluorophenyl)(1-methylpiperidin-4-yloxy)methyl]benzothiazole], the melting point stood at 192 °C.
Molecule `CN1CCC(OC(c2ccc(Cl)cc2)c2nc3ccccc3s2)CC1` (stereo not shown) (as salt: oxalate) [Example 4, 2-[(4-chlorophenyl)(1-methylpiperidin-4-yloxy)methyl]benzothiazole] had a melting point of 147 to 148 °C.
Molecule `CN1CCC(OC(c2cccc(F)c2)c2nc3ccccc3s2)CC1` (stereo not shown) (as salt: oxalate) [Example 5] registered a melting point of 167 to 170 °C.
The same measure, in the same setting: as for `CN1CCC(OC(c2nc3ccccc3s2)c2ccccc2F)CC1` (stereo not shown) (as salt: oxalate) [Example 6, 2-[(2-fluorophenyl)(1-methylpiperidin-4-yloxy)methyl]benzothiazole], the figure is 178 to 179 °C; as for `Cc1ccc(C(OC2CCN(C)CC2)c2nc3ccccc3s2)cc1` (stereo not shown) (as salt: oxalate) [Example 7, 2-[(1-methylpiperidin-4-yloxy)-p-tolylmethyl]benzothiazole], 177 °C.
In the case of `Cc1cccc(C(OC2CCN(C)CC2)c2nc3ccccc3s2)c1` (stereo not shown) (as salt: oxalate) [Example 8, 2-[(1-methylpiperidin-4-yloxy)(m-tolyl)methyl]benzothiazole], the melting point amounted to 177 °C.
The same measure, in the same setting: as for `CN1CCC(OC(c2nc3ccccc3s2)c2ccc(F)cc2F)CC1` (stereo not shown) (as salt: oxalate) [Example 12, 2-[(2,4-difluorophenyl)(1-methyl-piperidin-4-yloxy)methyl]-benzothiazole], the figure is 182 °C; as for `CN1CCC(OC(c2cc(F)cc(F)c2)c2nc3ccccc3s2)CC1` (stereo not shown) (as salt: oxalate) [Example 15, 2-[(3,5-difluorophenyl)(1-methyl-piperidin-4-yloxy)methyl]benzothiazole], 165 °C.
Molecule `Cc1ccc(C(OC2CCN(C)CC2)c2nc3ccccc3s2)s1` (stereo not shown) (as salt: oxalate) [Example 19, 2-[(1-methylpiperidin-4-yloxy)(5-methylthiophen-2-yl)methyl]benzothiazole] returned a melting point of 174 °C.
Consider `Cc1cccc(C(NC2CCN(C)CC2)c2nc3ccccc3s2)c1` (stereo not shown) (as salt: oxalate) [Example 21, [(benzothiazol-2-yl)(m-tolyl)methyl](1-methylpiperidin-4-yl)amine], for which the melting point came to 127 °C.
`CN1CCC(OC(c2ccc(OC(F)(F)F)cc2)c2nc3ccccc3s2)CC1` (stereo not shown) (as salt: oxalate) [Example 24, 2-[(1-methylpiperidin-4-yloxy)(4-trifluoromethoxyphenyl)methyl]benzothiazole] registered a melting point of 155 °C.
The same measure, in the same setting: as for `COc1cccc(C(NC2CCN(C)CC2)c2nc3ccccc3s2)c1` (stereo not shown) (as salt: oxalate) [Example 25, [benzothiazol-2-yl(3-methoxyphenyl)methyl](1-methylpiperidin-4-yl)amine], the figure is 160 °C.

In the next data set the target is T1, human H4 receptor (Homo sapiens, UniProt Q9H3N8).
T1 construct: expressed in transfected cells
T1 sequence (Q9H3N8 whole entry): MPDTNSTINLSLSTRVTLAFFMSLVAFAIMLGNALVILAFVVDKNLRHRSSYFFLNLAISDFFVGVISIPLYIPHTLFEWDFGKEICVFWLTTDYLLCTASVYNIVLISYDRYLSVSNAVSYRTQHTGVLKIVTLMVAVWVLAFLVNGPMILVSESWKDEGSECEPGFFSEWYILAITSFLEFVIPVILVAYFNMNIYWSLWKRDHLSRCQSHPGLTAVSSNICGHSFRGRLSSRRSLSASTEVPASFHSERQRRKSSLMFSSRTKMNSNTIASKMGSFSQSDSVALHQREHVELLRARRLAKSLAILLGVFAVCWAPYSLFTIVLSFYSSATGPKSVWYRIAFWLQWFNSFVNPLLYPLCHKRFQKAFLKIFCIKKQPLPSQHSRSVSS
The data set is described as follows: [3H]Histamine binding on membranes of CHO cells stably expressing human H4 receptor. The method, boiled down: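 CHO-hH4 membranes 20 μg/well; buffer 50 mM Tris/HCl, 0.5 mM EDTA, pH 7.4; NSB: 10 μM JNJ 7777120 (BP1.2404); GF/B filtration (PEI-presoaked), 3 ice-cold washes; scintillation counting.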
On to `CCOC(=O)NCCCCC#Cc1cccc(C(OC2CCN(C)CC2)c2nc3ccccc3n2C)c1` (stereo not shown) [Example 549, ethyl (6-{3-[(1-methyl-1H-benzimidazol-2-yl)(1-methylpiperidin-4-yloxy)methyl]phenyl}hex-5-ynyl)carbamate], for which the Ki or IC50 activity class is < 1 µM.
With `CN1CCC(OC(c2ccc3cc[nH]c3c2)c2nc3ccccc3[nH]2)CC1` (stereo not shown) [Example 550, 2-[(1H-indol-6-yl)(1-methylpiperidin-4-yloxy)methyl]-1H-benzimidazole], the Ki or IC50 activity class was < 0.03 µM.
Consider `CCOC(=O)n1c(C(OC2CCN(C)CC2)c2cc(OC(F)(F)F)ccc2F)nc2ccccc21` (stereo not shown) [Example 553], for which the Ki or IC50 activity class was < 1 µM.
In the case of `CN1CCC(OC(c2ccc3ccsc3c2)c2nc3ccccc3[nH]2)CC1` (stereo not shown) [Example 556, 2-[benzo[b]thiophen-6-yl(1-methylpiperidin-4-yloxy)methyl]-1H-benzimidazole], the Ki or IC50 activity class is < 0.03 µM.
Still for that read-out and setting: as for `CN1CCC(OC(c2nc3ccccc3[nH]2)c2cc(C#CCCCCN)ccc2F)CC1` (stereo not shown) [Example 557, 6-{3-[(1H-benzimidazol-2-yl)(1-methylpiperidin-4-yloxy)methyl]-4-fluorophenyl}hex-5-ynylamine], the figure is < 0.03 µM; as for `CN1CCC(OC(c2nc3ccccc3[nH]2)c2cc(C#CCCCCN=C(c3ccccc3)c3ccccc3O)ccc2F)CC1` (stereo not shown) [Example 562, 2-[(6-{3-[(1H-benzimidazol-2-yl)(1-methylpiperidin-4-yloxy)methyl]-4-fluorophenyl]hex-5-ynylimino)phenylmethyl}phenol], < 0.03 µM.
For the molecule `CC1=C(O)C(=NCCCCC#Cc2ccc(F)c(C(OC3CCN(C)CC3)c3nc4ccccc4[nH]3)c2)CC1` (stereo not shown) [Example 563, 5-(6-{3-[(1H-benzimidazol-2-yl)(1-methylpiperidin-4-yloxy)methyl]-4-fluorophenyl}hex-5-ynylimino)-2-methylcyclopent-1-enol], the Ki or IC50 activity class is < 0.3 µM.
As to `CN1CCC(OC(c2ccc(O)cc2)c2nc3ccccc3[nH]2)CC1` (stereo not shown) [Example 597], the Ki or IC50 activity class is < 1 µM.
